Here are results for 11 compounds from patent US20250171495A1, “MUTLI-TARGETED SERINE PROTEASE INHIBITORS FOR TREATMENT OF CANCER AND VIRAL INFECTION” (Washington University, priority 2023, published 2025).

Like-named read-outs stand apart in the source and are kept apart here. Where only a bound is given, the exact number is not on record here.

Common to all, as to format: biochemical
Test [1] addresses T1, HGFA (Homo sapiens, UniProt Q04756).
T1 construct: purchased R&D Systems 1514-SE-010
T1 sequence (Q04756 408-655 limits assumed): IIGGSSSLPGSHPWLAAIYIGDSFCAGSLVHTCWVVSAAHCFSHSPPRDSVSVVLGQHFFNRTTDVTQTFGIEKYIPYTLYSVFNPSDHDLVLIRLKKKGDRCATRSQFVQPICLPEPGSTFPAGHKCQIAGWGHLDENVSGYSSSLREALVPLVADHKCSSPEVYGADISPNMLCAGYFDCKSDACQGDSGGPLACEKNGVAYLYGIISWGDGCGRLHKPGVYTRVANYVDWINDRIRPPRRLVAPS
T1 sequence (Q04756 373-407 partner limits assumed): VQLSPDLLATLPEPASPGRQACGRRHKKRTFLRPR
Description: Fluorogenic kinetic enzyme inhibitor assay, HGFA.

Test [2] has as its target T2, Factor Xa (Homo sapiens, UniProt P00742).
T2 construct: TMPRSS2; Matriptase; Hepsin; HGFA; Thrombin; Factor Xa
Description: Fluorogenic assay, Factor Xa.

Test [3] deals with Thrombin (Homo sapiens, UniProt P00734). Description: Fluorogenic assay, thrombin.
For test [4], the target named is T3, matriptase (Homo sapiens, UniProt Q9Y5Y6).
T3 construct: purchased R&D Systems 3946-SEB-010
T3 sequence (Q9Y5Y6 615-855 limits assumed): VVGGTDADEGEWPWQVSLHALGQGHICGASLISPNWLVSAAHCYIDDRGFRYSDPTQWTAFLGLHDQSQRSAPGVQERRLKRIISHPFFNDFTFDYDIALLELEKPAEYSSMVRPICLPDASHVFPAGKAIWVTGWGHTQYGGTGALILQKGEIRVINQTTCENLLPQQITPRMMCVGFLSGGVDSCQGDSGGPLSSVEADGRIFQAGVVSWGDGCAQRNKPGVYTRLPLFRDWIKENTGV
As to the kind of experiment: Fluorogenic kinetic enzyme inhibitor assay, matriptase.

Test [5] concerns the target TMPRSS2 (Homo sapiens, UniProt O15393). As to the kind of experiment: Fluorogenic kinetic enzyme inhibitor assay, TMPRSS2. The note with it: read-out: TMPRSS2 IC50. Also noted: purchased Cusabio Technology CSB-YP023924HU.
Test [6] has as its target T4, hepsin (Homo sapiens, UniProt P05981).
T4 construct: purchased R&D Systems 4776-SE-010
As to the kind of experiment: Fluorogenic kinetic enzyme inhibitor assay, hepsin.

TMPRSS2, sequence (O15393 106-492 limits assumed): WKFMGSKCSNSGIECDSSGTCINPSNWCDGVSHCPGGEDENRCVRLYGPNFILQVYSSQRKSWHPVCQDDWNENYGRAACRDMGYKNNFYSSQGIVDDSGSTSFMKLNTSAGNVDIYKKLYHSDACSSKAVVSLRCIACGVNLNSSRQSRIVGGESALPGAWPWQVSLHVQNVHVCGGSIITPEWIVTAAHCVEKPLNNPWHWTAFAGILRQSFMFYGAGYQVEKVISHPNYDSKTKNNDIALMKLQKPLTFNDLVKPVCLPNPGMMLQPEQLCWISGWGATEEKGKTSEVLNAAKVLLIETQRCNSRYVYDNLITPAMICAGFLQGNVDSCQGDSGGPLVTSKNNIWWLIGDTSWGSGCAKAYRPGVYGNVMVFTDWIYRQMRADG
T4 sequence (P05981 163-417 limits assumed): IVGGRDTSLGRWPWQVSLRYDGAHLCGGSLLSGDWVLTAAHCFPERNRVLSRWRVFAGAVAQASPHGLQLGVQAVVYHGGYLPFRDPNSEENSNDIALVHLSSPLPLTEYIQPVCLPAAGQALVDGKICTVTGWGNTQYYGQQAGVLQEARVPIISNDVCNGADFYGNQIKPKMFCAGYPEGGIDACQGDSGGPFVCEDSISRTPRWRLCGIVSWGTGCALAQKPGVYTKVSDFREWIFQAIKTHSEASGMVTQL
T4 sequence (P05981 1-162 partner limits assumed): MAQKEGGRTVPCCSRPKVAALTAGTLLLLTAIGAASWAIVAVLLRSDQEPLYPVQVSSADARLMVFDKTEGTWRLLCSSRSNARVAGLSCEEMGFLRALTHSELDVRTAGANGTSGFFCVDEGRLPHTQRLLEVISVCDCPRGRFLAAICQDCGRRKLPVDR
T2 sequence (P00742 235-488 limits assumed): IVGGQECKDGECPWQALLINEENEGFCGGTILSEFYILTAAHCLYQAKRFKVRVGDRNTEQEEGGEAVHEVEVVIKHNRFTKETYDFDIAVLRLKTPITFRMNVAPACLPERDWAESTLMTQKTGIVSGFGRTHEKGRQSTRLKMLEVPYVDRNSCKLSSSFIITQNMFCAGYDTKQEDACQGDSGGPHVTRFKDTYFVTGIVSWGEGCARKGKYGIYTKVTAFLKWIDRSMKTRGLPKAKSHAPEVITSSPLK
T2 sequence (P00742 41-179 partner limits assumed): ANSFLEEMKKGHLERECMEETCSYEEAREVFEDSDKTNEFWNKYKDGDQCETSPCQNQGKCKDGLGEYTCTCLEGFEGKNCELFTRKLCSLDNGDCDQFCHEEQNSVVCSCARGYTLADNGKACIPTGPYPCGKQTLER

Regarding `CSCC[C@H](NC(C)=O)C(=O)N[C@@H](CCC(N)=O)C(=O)N[C@@H](Cc1ccccc1)C(=O)N[C@@H](CCCNC(=N)N)C(=O)c1nc2ccccc2s1` [MM3130, N-[(S)-1-[N-(S)-1-[(1,3-benzothiazol-2-yl)carbonyl]-4-guanidinobutylcarbamoyl]-2-phenylethyl](S)-2-[(S)-2-acetylamino-4-(methylthio)butyrylamino] glutaramide], the IC50 – broadly, the midpoint of a concentration-inhibition curve – in test [1] is 36.4 nM; in test [2] (read-out: Factor Xa IC50), 342 nM; in test [3] it was > 20 µM; in test [4] it was 0.552 nM; in test [5], 0.142 nM; in test [6], 0.134 nM.
Take `CC(=O)N[C@@H](CC(C)C)C(=O)N[C@@H](CCC(N)=O)C(=O)N[C@@H](Cc1ccccc1)C(=O)N[C@@H](CCCNC(=N)N)C(=O)c1nc2ccccc2s1` [MM3131, N-[(S)-1-[N-(S)-1-[(1,3-benzothiazol-2-yl)carbonyl]-4-guanidinobutylcarbamoyl]-2-phenylethyl](S)-2-[(S)-2-acetylamino-4-methylvalerylamino]glutaramide]: the IC50 in test [1] was 98.2 nM; in test [2] it was 219 nM; in test [3] it was > 20 µM; in test [4], 1.8 nM; in test [5], 0.031 nM; in test [6] it was 0.247 nM.
`CCC(C)[C@H](NC(C)=O)C(=O)N[C@@H](CCC(N)=O)C(=O)N[C@@H](C)C(=O)N[C@@H](CCCNC(=N)N)C(=O)c1nc2ccccc2s1` (stereo partly drawn) [MM3178, N-[(S)-1-[N-(S)-1-[(1,3-benzothiazol-2-yl)carbonyl]-4-guanidinobutylcarbamoyl]ethyl](S)-2-[(2S)-2-acetylamino-3-methylvalerylamino]glutaramide]: the IC50 is > 20000 nM in test [1] (read-out: HGFA IC50); 170 nM in test [2] (read-out: Factor Xa IC50); > 20 µM in test [3]; 0.1 nM in test [4]; 0.227 nM in test [5]; 1.25 nM in test [6] (read-out: Hepsin IC50).
With `CCC(C)[C@H](NC(C)=O)C(=O)N[C@@H](CCC(N)=O)C(=O)N[C@@H](Cc1c[nH]c2ccccc12)C(=O)N[C@@H](CCCNC(=N)N)C(=O)c1nc2ccccc2s1` (stereo partly drawn) [MM3187, N-[(S)-2-(3-indolyl)-1-[N-(S)-1-[(1,3-benzothiazol-2-yl)carbonyl]-4-guanidinobutylcarbamoyl]ethyl](S)-2-[(2S)-2-acetylamino-3-methylvalerylamino]glutaramide], the IC50 in test [1] (read-out: HGFA IC50) was 1450 nM; in test [2] (read-out: Factor Xa IC50) it was 129 nM; in test [3] it was > 20 µM; in test [4] it was 1.23 nM; in test [5], 2.19 nM; in test [6] (read-out: Hepsin IC50), 0.319 nM.
`CC(=O)N[C@H](Cc1c[nH]c2ccccc12)C(=O)N[C@@H](Cc1ccccc1)C(=O)N[C@@H](CCCNC(=N)N)C(=O)c1nc2ccccc2s1` [PK-1-89A1, N-[(S)-1-[(1,3-benzothiazol-2-yl)carbonyl]-4-guanidinobutyl](S)-2-[(R)-2-acetylamino-3-(3-indolyl)propionylamino]-3-phenylpropionamide]: the IC50 in test [1] (read-out: HGFA IC50) was 27 nM; in test [2] (read-out: Factor Xa IC50), 98 nM; in test [3] it was > 20 µM; in test [4] (read-out: Matriptase IC50) it was 2.6 nM; in test [5] it was 0.156 nM; in test [6] (read-out: Hepsin IC50), 1.1 nM.
Consider `CC(=O)N[C@H](Cc1c[nH]c2ccccc12)C(=O)N[C@@H](CC(C)C)C(=O)N[C@@H](CCCNC(=N)N)C(=O)c1nc2ccccc2s1` [PK-1-91, N-[(S)-1-[(1,3-benzothiazol-2-yl)carbonyl]-4-guanidinobutyl](S)-2-[(R)-2-acetylamino-3-(3-indolyl)propionylamino]-4-methylvaleramide], for which the IC50 in test [1] (read-out: HGFA IC50) stood at 104 nM; in test [2] (read-out: Factor Xa IC50) it was 1440 nM; in test [3] it was 9.37 µM; in test [4] (read-out: Matriptase IC50) it was 39 nM; in test [5], 0.026 nM; in test [6] (read-out: Hepsin IC50), 1.6 nM.
On to `CC(=O)N[C@@H](Cc1c[nH]c2ccccc12)C(=O)N[C@@H](Cc1ccccc1)C(=O)N[C@@H](CCCNC(=N)N)C(=O)c1nc2ccccc2s1` [PK-1-102A1, N-[(S)-1-[(1,3-benzothiazol-2-yl)carbonyl]-4-guanidinobutyl](S)-2-[(S)-2-acetylamino-3-(3-indolyl)propionylamino]-3-phenylpropionamide], for which the IC50 in test [1] (read-out: HGFA IC50) is 329 nM; in test [2] (read-out: Factor Xa IC50), 21.6 nM; in test [3], > 20 µM; in test [4] (read-out: Matriptase IC50) it was 5.7 nM; in test [5], 0.388 nM; in test [6] (read-out: Hepsin IC50), 7.6 nM.
On to `CC(=O)N[C@@H](Cc1c[nH]c2ccccc12)C(=O)N[C@@H](CC(C)C)C(=O)N[C@@H](CCCNC(=N)N)C(=O)c1nc2ccccc2s1` [PK-1-104, N-[(S)-1-[(1,3-benzothiazol-2-yl)carbonyl]-4-guanidinobutyl](S)-2-[(S)-2-acetylamino-3-(3-indolyl)propionylamino]-4-methylvaleramide], for which the IC50 came to 76.3 nM in test [1] (read-out: HGFA IC50); 890 nM in test [2] (read-out: Factor Xa IC50); 17 µM in test [3]; 25.7 nM in test [4] (read-out: Matriptase IC50); 1.3 nM in test [5]; 0.93 nM in test [6] (read-out: Hepsin IC50).
Regarding `CSCC[C@@H]1NC(=O)[C@@H](NC(C)=O)CC(=O)NCCCC[C@@H](C(=O)N[C@@H](CCCNC(=N)N)C(=O)c2nc3ccccc3s2)NC1=O` [VD3173, N-[(S)-1-[(1,3-benzothiazol-2-yl)carbonyl]-4-guanidinobutyl]-(3S,6S,14S)-6-acetylamino-3-[2-(methylthio)ethyl]-2,5,8-trioxo-1,4,9-triaza-14-cyclotetradecanecarboxamide], the IC50 in test [1] (30 min incubation, Boc-QLR-AMC at Km, read-out: HGFA IC50) was determined as 3240 nM; in test [2] (read-out: Factor Xa IC50), 1390 nM; in test [3], 18.5 µM; in test [4] (read-out: Matriptase IC50) it was 1 nM; in test [5], 0.401 nM; in test [6] (30 min incubation, Boc-QAR-AMC at Km, read-out: Hepsin IC50), 5.9 nM.
As for `CC(=O)N[C@H]1Cc2ccc(cc2)OC/C=C\C[C@@H](C(=O)N[C@@H](CCCNC(=N)N)C(=O)c2nc3ccccc3s2)NC(=O)[C@H](CC(C)C)NC1=O` [VD4010, N-[(S)-1-[(1,3-benzothiazol-2-yl)carbonyl]-4-guanidinobutyl]-(4Z,7S,10S,13S)-13-acetylamino-10-isobutyl-9,12-dioxo-2-oxa-8,11-diazabicyclo[13.2.2]nonadeca-1(17),4,15,18-tetraene-7-carboxamide], the IC50 in test [1] (read-out: HGFA IC50) is 53 nM; in test [2] (read-out: Factor Xa IC50), 122 nM; in test [3], > 20 µM; in test [4], 3.4 nM; in test [5], 1.21 nM; in test [6] (read-out: Hepsin IC50), 0.17 nM.
In the case of `CC(=O)N[C@H]1C/C=C\COc2ccc(cc2)C[C@@H](C(=O)N[C@@H](CCCNC(=N)N)C(=O)c2nc3ccccc3s2)NC(=O)[C@H](CC(C)C)NC1=O` [VD4051, N-[(S)-1-[(1,3-benzothiazol-2-yl)carbonyl]-4-guanidinobutyl]-(4Z,7S,10S,13S)-7-acetylamino-10-isobutyl-8,11-dioxo-2-oxa-9,12-diazabicyclo[13.2.2]nonadeca-1(17),4,15,18-tetraene-13-carboxamide], the IC50 in test [1] is > 20000 nM; in test [2] (read-out: Factor Xa IC50) it was 8810 nM; in test [3], > 20 µM; in test [4], 14 nM; in test [5], 14.2 nM; in test [6], 20 nM.
